Consider 73 molecules from the RepoRT retention time repository (doi:10.1093/pcp/pcn183).

Where a name gives a salt, the structure may show the parent alone.

The data set is described as follows: RP, Waters ACQUITY UPLC BEH C18, 38 °C, 0.24 mL/min; A: water + 0.1% formic acid, pH 3; B: acetonitrile + 0.1% formic acid, pH 3; gradient (min/%B) 0/0 0.25/0 0.4/9 0.8/17 1.9/100 2.1/100 2.11/0 3/0. The following applies: stereoisomer not certain.
Turning to `CC(=O)Oc1ccc2c(C)cc(=O)oc2c1` [4-methylumbelliferyl acetate], the LC retention time was 1.69 min. Under `NCCc1ccc(O)cc1` [Tyramine] stands 0.67 min. Under `[NH3+]CCCCCC(=O)[O-]` [6-Aminohexanoic acid] stands 0.41 min; under `NC(=NCCCC(N)C(=O)O)NC(CC(=O)O)C(=O)O` (stereo not drawn) [Argininosuccinic acid disodium salt], 0.29 min.

As for `C=CC(C)(O)CCC=C(C)CCC=C(C)C` (stereo not drawn) [cis-Nerolidol], the LC retention time worked out at 1.81 min. The figure for `CC(N)CC(=O)O` (racemic) [DL-beta-Aminobutyric acid] is 0.18 min; for `O=c1cc(-c2ccc(O)c(O)c2)oc2c(C3OC(CO)C(O)C(O)C3O)c(O)cc(O)c12` (stereo not drawn) [Orientin] it is 1.35 min. `OCC1OC(OC2C(Oc3cc4c(O)cc(O)cc4[o+]c3-c3ccc(O)c(O)c3)OC(CO)C(O)C2O)C(O)C(O)C1O` (stereo not drawn): the LC retention time was 1.16 min. With `N[C@H]1C(O)O[C@H](CO)[C@@H](O)[C@@H]1O` (stereo partly drawn) [D-(+)-Glucosamine hydrochloride], the LC retention time came out at 0.15 min. The figure for `CC(C)c1cccc(O)c(=O)c1` [Hinokitiol] is 1.49 min; for `CNCC(O)c1cccc(O)c1` [(R)-(-)-Phenylephrine hydrochloride] it is 0.59 min. Consider `NCCCCN` [1,4-Diaminobutane], for which the LC retention time is 0.14 min. With `COc1cc(C=CC=O)ccc1O` [4-Hydroxy-3-methoxycinnamaldehyde], the LC retention time amounted to 1.52 min. Under `O=C(O)c1ccccc1O` [Salicylic Acid] stands 1.55 min; under `CCCCc1ccc(C(=O)O)nc1` [Fusaric acid], 1.37 min. Under `NCCCCN=C(N)N` [Agmatine sulfate salt] stands 0.15 min. In the case of `N[C@@H](Cc1cnc[nH]1)C(=O)O` [L-Histidine], the LC retention time was determined as 0.15 min.

For the molecule `CCCCCC1CCC(=O)O1` (stereo not drawn) [4-Nonanolide], the LC retention time is 1.87 min. The figure for `O=c1cc(-c2ccc(O)c(OC3OC(CO)C(O)C(O)C3O)c2)oc2cc(OC3OC(CO)C(O)C(O)C3O)cc(O)c12` (stereo not drawn) [luteolin-3',7-di-O-glucoside] is 1.35 min. Under `O=c1[nH]cnc2c1ncn2C1CC(O)C(COP(=O)(O)O)O1` (stereo not drawn) [2'-Deoxyinosine-5'-monophosphate sodium salt] stands 0.7 min; under `COc1ccc(C=CC(=O)O)cc1` [4-Methoxycinnamic acid], 1.65 min; under `COc1cc(-c2[o+]c3cc(O)cc(O)c3cc2OC2OC(CO)C(O)C(O)C2O)cc(OC)c1O` (stereo not drawn) [Oenin], 1.29 min. The figure for `Oc1cc(O)c2cc(OC3OCC(O)C(O)C3O)c(-c3ccc(O)c(O)c3)[o+]c2c1` (stereo not drawn) [Cyanidin-3-O-alpha-arabinopyranoside] is 1.23 min.

For the molecule `C[N+](C)(C)CCOP(=O)(O)O` [O-Phosphocholine], the LC retention time came out at 0.17 min. `CC(O)(CC(=O)O)CC(=O)O` [3-Hydroxy-3-methylglutarate]: the LC retention time worked out at 0.68 min.

`O=C1OC2C(O)C(O)OC2C1O` [D-Glucurono-6,3-lactone]: the LC retention time turned out to be 0.19 min.

Regarding `Nc1ncnc2c1ncn2C1CC(O)C(COP(=O)(O)O)O1` (stereo not drawn) [2'-Deoxyadenosine-5'-monophosphate], the LC retention time came out at 0.62 min. The figure for `N[C@H](CS)C(=O)O` [D-Cysteine] is 0.15 min; for `COc1ccccc1C(=O)O` [o-Anisic Acid] it is 1.47 min. Under `O=C(O)CCCCC1CCSS1` (racemic) [(+-)-alpha-Lipoic acid] stands 1.74 min.

In the case of `N[C@@H](Cc1ccccc1)C(=O)O` [L-(-)-Phenylalanine], the LC retention time stood at 1.09 min. For the molecule `CSC[C@H](N)C(=O)O` [S-Methyl-L-cysteine], the LC retention time was 0.2 min. Under `CSCC[C@H](N)CC(=O)O` [L-beta-homomethionine-HCl] stands 0.66 min; under `O=C(O)Cc1c[nH]c2ccc(O)cc12` [5-Hydroxyindole-3-acetate (5-HIAA)], 1.27 min; under `CN(C)c1ccccc1` [N,N-Dimethylaniline], 1.11 min. The figure for `CC(O)(CC(=O)O)C(=O)O` (single isomer, unassigned; (-)) [(-)-Citramalic acid] is 0.51 min; for `C[C@H](N)C(=O)O` [L-Alanine] it is 0.17 min; for `CC(=O)OC[C@H](N)C(=O)O` [O-acetyl-L-serine hydrochloride] it is 0.19 min. Turning to `CN1C2CCC1CC(=O)C2` [Tropinone], the LC retention time was 0.24 min. Consider `OCC1OC(OC2C(CO)OC(O)C(O)C2O)C(O)C(O)C1O` [D-(+)- Maltose monohydrate], for which the LC retention time amounted to 0.17 min.

With `O=C(O)Cc1ccccc1O` [2-Hydroxyphenylacetic acid], the LC retention time was determined as 1.38 min. With `O=c1ccc2ccc(O)c(O)c2o1` [Daphnetin], the LC retention time came out at 1.34 min. The figure for `O=C(O)c1cc(O)ccc1O` [2,5-dihydroxy benzoic acid] is 1.25 min. With `CC[C@H](N)C(=O)O` [L-2-Aminobutyric acid], the LC retention time was determined as 0.18 min.

For `Nc1c(O)cccc1C(=O)O` [3-Hydroxyanthranilic acid], the LC retention time worked out at 1.13 min. Under `CC(C)[N+](=O)[O-]` [2-nitropropane] stands 0.3 min. The figure for `C[C@@H](N)P(=O)(O)O` [(S)-(+)-1-Aminoethylphosphonic acid] is 0.16 min; for `CC(C)CC(N)C(=O)O` [L-Leucine, (Cell Culture Reagent, Crystalline)] it is 0.53 min; for `Nc1nc2c(ncn2C2OC(CO)C(O)C2O)c(=O)[nH]1` (stereo not drawn) [Guanosine] it is 1.08 min. With `CC(C(=O)O)C(=O)O` [Methylmalonic acid], the LC retention time was 0.54 min. Under `Nc1ccn(C2OC(COP(=O)(O)O)C(O)C2O)c(=O)n1` (stereo not drawn) [Cytidine-5'-monophosphate monohydrate] stands 0.24 min. Under `Cc1ncc(C[n+]2csc(CCO)c2C)c(N)n1` [Thiamine hydrochloride] stands 0.19 min; under `O=C(O)CCCCCCCCC(=O)O` [Sebacic acid], 1.58 min; under `Nc1ncnc2c1ncn2C1OC(COP(=O)(O)O)C(O)C1O` (stereo not drawn) [Adenosine-5'-monophosphate sodium salt], 0.39 min. As for `C[N+](C)(C)CCO` [Choline chloride], the LC retention time came to 0.17 min. The figure for `COc1ccc(-c2cc(=O)c3c(O)cc(OC4OC(COC5OC(C)C(O)C(O)C5O)C(O)C(O)C4O)cc3o2)cc1` (stereo not drawn) [Linarin] is 1.54 min; for `Cc1ncsc1CCO` [4-Methyl-5-thiazoleethanol] it is 1.08 min; for `CC1OC(O)C(O)C(O)C1O` (stereo not drawn) it is 0.21 min.

For `NCCCC(=O)NC(Cc1cnc[nH]1)C(=O)O` [L-Homocarnosine], the LC retention time turned out to be 0.16 min. The figure for `O=C(O)C=Cc1ccccc1O` [2-Hydroxycinnamic acid, predominantly trans] is 1.51 min; for `NC(CCSCC(N)C(=O)O)C(=O)O` (stereo not drawn) [L(+)-Cystathionine] it is 0.16 min; for `NCCC[C@H](N)C(=O)O` [L-Ornithine monohydrochloride] it is 0.14 min. The figure for `Cc1cc2nc3cc(C)c(N)cc3[n+](-c3ccccc3)c2cc1N` [Safranine] is 1.57 min. For `Nc1ccc(C(=O)O)cc1` [4-Aminobenzoic acid], the LC retention time turned out to be 1.13 min. The figure for `OCC1OC(OC2C(O)C(O)C(O)C(O)C2O)C(O)C(O)C1O` (stereo not drawn) [Galactinol Dihydrate] is 0.16 min; for `COc1cc(-c2[o+]c3cc(O)cc(O)c3cc2OC2OCC(O)C(O)C2O)ccc1O` (stereo not drawn) [Peonidin-3-O-alpha-arabinopyranoside] it is 1.3 min; for `NC(=O)C[C@H](N)C(=O)O` [L-Asparagine] it is 0.16 min. Take `c1ccc(NC[C@@H]2CCCN2)cc1` [(S)-(+)-2-(anilinomethyl)pyrrolidine]: the LC retention time is 1.27 min. Under `CC(=O)N[C@@H]1C(O)O[C@H](CO)[C@@H](O)[C@@H]1O` (stereo partly drawn) [N-acetyl-D-mannosamine] stands 0.18 min; under `NC12CC3CC(CC(C3)C1)C2` [Amantadine hydrochloride], 1.28 min. Under `CC(=O)OCC[N+](C)(C)C` [Acetylcholine chloride] stands 0.24 min; under `O=C1CC[C@@H](C(=O)O)N1` [L-Pyroglutamic acid], 0.41 min. The figure for `O=C(O)C(O)Cc1ccc(O)cc1` (racemic) [DL-p-Hydroxyphenyllactic acid] is 1.18 min.
